# Reference: paper PMC7146381, “Modulation of Adhesion Process, E-Selectin and VEGF Production by Anthocyanins and Their Metabolites in an In Vitro Model of Atherosclerosis” (Nutrients, 2020)
# Marks after values point to notes of the source that are not given here.
# Legend:
# VEGF = test: ELISA quantification of VEGF in cell supernatant; assay type: cell-based, Human; conditions: for levels of VEGF in cell supernatant: with TNF-α 100 ng mL^−1, mean ± SEM
# Method: (§1) When the confluency reached about 80%, HUVECs were removed using trypsin ([…]) and seeded on a 0.1% gelatin pre-coated 96-well black plate at the concentration of 2 × 10^4 cells/well at 37 °C and 5% CO2. After 24 h incubation, THP-1 (2 × 10^6) cells were labelled with CellTracker^TM Green CMFDA (1 µM) in 1 mL serum-free RPMI medium (containing 1% HEPES, 1% sodium pyruvate and 0.1% gentamicin) for 30 min. Successively, cells were washed twice, re-suspended in HUVEC medium at a final concentration of 2 × 10^5 cells mL^−1 and added to HUVECs. The adhesion process was induced for 24 h with 100 ng mL^−1 of TNF-α. Then, 200 μL of new medium containing the single compounds (0.02 µM, 0.2 µM, 2 µM and 20 µM for Peo and Pet-3-glc and 0.05 µM, 0.5 µM, 5 µM and 50 µM for VA and MetGA) was added and the cells were further incubated for 24 h. Medium from each well was collected and stored at −80 °C until ELISA analysis. Cells were rinsed twice with 200 µL of Hanks balanced salt solution and the fluorescence (excitation: 485 nm, emission: 538 nm) associated with the number of labeled THP-1 cells attached to the HUVECs was measured by a spectrophotometer (mod. F200 Infinite, TECAN Milan, Italy). Each compound and concentration were tested in quintuplicate in three independent experiments.
# (§2) At the end of the experiment, the recovered cell culture supernatants were used to quantify the concentrations of soluble VCAM-1 (Cat# EK0537, BosterBio), E-selectin (Cat# MBS355367, MyBioSource) and VEGF (Cat# V3-200-820-VEF, Vinci-Biochem). The analysis was performed using ELISA kits according to the manufacturer’s instruction. The analyses were conducted in quadruplicate and the results derived from three independent experiments.
# [1] = Cytotoxicity, MTT assay on HUVECs; assay type: cell-based; conditions: human, with TNF-α stimulus, mean ± SEM, read-out: Percentage of cell viability, MTT assay
# Method: (§3) The cytotoxicity of the compounds was tested by Trypan blue and (3-(4,5-dimethylthiazol-2-yl)-2, 5-diphenyltetrazolium bromide (MTT) assay on HUVECs, according to the manufacturer’s instructions. Triton X-100 was used as positive control. Two independent experiments were performed in which each compound and concentration was tested in quadruplicate.
# [2] = Cytotoxicity, Trypan blue assay on HUVECs; assay type: cell-based, Human; conditions: human
# Method: as §3
# soluble VCAM-1 = test: ELISA quantification of soluble VCAM-1 in cell supernatant; assay type: cell-based, Human; conditions: with TNF-α 100 ng mL^−1, mean ± SEM
# Method: as §1, §2
# E-selectin = test: ELISA quantification of E-selectin in cell supernatant; assay type: cell-based, Human; conditions: for levels of E-selectin in cell supernatant: with TNF-α 100 ng mL^−1, mean ± SEM; for change of E-selectin levels compared to the negative control (without TNF-α): p < 0.05
# Method: as §1, §2
# THP-1 adhesion to HUVECs = test: THP-1 (monocytes) adhesion to TNF-α-activated HUVECs, fluorescence of labelled THP-1; assay type: cell-based, Human; conditions: 24 h after TNF-α 100 ng mL^−1
# Method: as §1
# [3] = test system: adhesion of monocytes to endothelial cells; parameters: method as in PMID 26873533; conditions: TNF-α 4 h, monocyte co-incubation 15 min; cited from earlier work
# [4] = 0.02 µM, controls 120-121 (no TNF-α), 170-172 (TNF-α)
# [5] = 0.02 µM, controls 59-64 (no TNF-α), 307-316 (TNF-α)
# [6] = 0.02 µM, controls 160-164 (no TNF-α), 316-317 (TNF-α)
smiles,measurement,setting,value
"COc1cc(-c2[o+]c3cc(O)cc(O)c3cc2O[C@@H]2O[C@H](CO)[C@@H](O)[C@H](O)[C@H]2O)ccc1O [Peo-3-glc, peonidin-3-glucoside]",levels of VEGF in cell supernatant,VEGF; [4],120 ± 6.9 ^a
same,change of VEGF concentrations vs TNF-α,"VEGF; 0.02 μM, p < 0.001",−27%
same,levels of VEGF in cell supernatant,VEGF; 0.2 µM,123 ± 1.7 ^a
same,change of VEGF concentrations vs TNF-α,"VEGF; 0.2 μM, p < 0.001",−28%
same,levels of VEGF in cell supernatant,VEGF; 2 µM,123 ± 6.0 ^a
same,change of VEGF concentrations vs TNF-α,"VEGF; 2 μM, p < 0.001",−30%
same,levels of VEGF in cell supernatant,VEGF; 20 µM,119 ± 2.6 ^a
same,change of VEGF concentrations vs TNF-α,"VEGF; 20 μM, p < 0.001",−30%
same,viability at 20 µM,[1],98.5 ± 0.12%
same,viability at 0.02 µM,[2],99.7 ± 0.33%
same,viability at 0.2 µM,[2],100%
same,viability at 2 µM,[2],99.3 ± 0.67%
same,viability at 20 µM,[2],99.3 ± 0.33%
same,levels of sVCAM-1 in cell supernatant,soluble VCAM-1; [5],107 ± 15 ^c
same,levels of sVCAM-1 in cell supernatant,soluble VCAM-1; 0.2 µM,104 ± 16 ^c
same,levels of sVCAM-1 in cell supernatant,soluble VCAM-1; 2 µM,186 ± 12 ^c
same,levels of sVCAM-1 in cell supernatant,soluble VCAM-1; 20 µM,149 ± 24 ^c
same,levels of E-selectin in cell supernatant,E-selectin; [6],143 ± 4.3 ^a
same,change of E-selectin production vs TNF-α control,"E-selectin; 0.02 μM, p < 0.001",−55%
same,levels of E-selectin in cell supernatant,E-selectin; 0.2 µM,108 ± 5.3 ^c
same,change of E-selectin production vs TNF-α control,"E-selectin; 0.2 μM, p < 0.001",−66%
same,change of E-selectin levels compared to the negative control (without TNF-α),E-selectin; 0.2 μM,−32%
same,levels of E-selectin in cell supernatant,E-selectin; 2 µM,109 ± 7.2 ^c
same,change of E-selectin production vs TNF-α control,"E-selectin; 2 μM, p < 0.001",−65%
same,change of E-selectin levels compared to the negative control (without TNF-α),E-selectin; 2 μM,−31%
same,levels of E-selectin in cell supernatant,E-selectin; 20 µM,76 ± 8.4 ^c
same,change of E-selectin production vs TNF-α control,"E-selectin; 20 μM, p < 0.001",−76%
same,change of E-selectin levels compared to the negative control (without TNF-α),E-selectin; 20 µM,−53%
same,change of THP-1 adhesion to HUVECs compared to the TNF-α treatment,"THP-1 adhesion to HUVECs; 0.02 µM, p < 0.0001",−37%
same,change of THP-1 adhesion to HUVECs compared to the TNF-α treatment,"THP-1 adhesion to HUVECs; 0.2 µM, p < 0.0001",−24%
same,change of THP-1 adhesion to HUVECs compared to the TNF-α treatment,"THP-1 adhesion to HUVECs; 2 µM, p < 0.0001",−30%
same,change of THP-1 adhesion to HUVECs compared to the TNF-α treatment,"THP-1 adhesion to HUVECs; 20 μM, p < 0.0001",−47%
same,concentrations with significant reduction in the adhesion of monocytes to endothelial cells,[3],effective only at the lowest concentration
"COc1cc(-c2[o+]c3cc(O)cc(O)c3cc2O[C@@H]2O[C@H](CO)[C@@H](O)[C@H](O)[C@H]2O)cc(O)c1O [Pet-3-glc, petunidin-3-glucoside]",levels of VEGF in cell supernatant,VEGF; [4],129 ± 10 ^a
same,change of VEGF concentrations vs TNF-α,"VEGF; 0.02 μM, p < 0.001",−24%
same,levels of VEGF in cell supernatant,VEGF; 0.2 µM,123 ± 7.4 ^a
same,change of VEGF concentrations vs TNF-α,"VEGF; 0.2 μM, p < 0.001",−27%
same,levels of VEGF in cell supernatant,VEGF; 2 µM,123 ± 2.9 ^a
same,change of VEGF concentrations vs TNF-α,"VEGF; 2 μM, p < 0.001",−28%
same,levels of VEGF in cell supernatant,VEGF; 20 µM,117 ± 9.9 ^a
same,change of VEGF concentrations vs TNF-α,"VEGF; 20 μM, p < 0.001",−30%
same,viability at 20 µM,[1],94.4 ± 0.45%
same,viability at 0.02 µM,[2],110%
same,viability at 0.2 µM,[2],97 ± 1%
same,viability at 2 µM,[2],97.7 ± 0.33%
same,viability at 20 µM,[2],100%
same,levels of sVCAM-1 in cell supernatant,soluble VCAM-1; [5],311 ± 13 ^b
same,levels of sVCAM-1 in cell supernatant,soluble VCAM-1; 0.2 µM,297 ± 15 ^b
same,levels of sVCAM-1 in cell supernatant,soluble VCAM-1; 2 µM,300 ± 14 ^b
same,levels of sVCAM-1 in cell supernatant,soluble VCAM-1; 20 µM,83 ± 10 ^c
same,levels of E-selectin in cell supernatant,E-selectin; [6],115 ± 7.5 ^c
same,change of E-selectin production vs TNF-α control,"E-selectin; 0.02 μM, p < 0.001",−64%
same,change of E-selectin levels compared to the negative control (without TNF-α),E-selectin; 0.02 µM,−28%
same,levels of E-selectin in cell supernatant,E-selectin; 0.2 µM,"123 ± 11.8 ^a,c"
same,change of E-selectin production vs TNF-α control,"E-selectin; 0.2 μM, p < 0.001",−60%
same,levels of E-selectin in cell supernatant,E-selectin; 2 µM,104 ± 6.3 ^c
same,change of E-selectin production vs TNF-α control,"E-selectin; 2 μM, p < 0.001",−67%
same,change of E-selectin levels compared to the negative control (without TNF-α),E-selectin; 2 μM,−36%
same,levels of E-selectin in cell supernatant,E-selectin; 20 µM,88 ± 12.1 ^c
same,change of E-selectin production vs TNF-α control,"E-selectin; 20 μM, p < 0.001",−72%
same,change of E-selectin levels compared to the negative control (without TNF-α),E-selectin; 20 µM,−45%
same,change of THP-1 adhesion to HUVECs compared to the TNF-α treatment,"THP-1 adhesion to HUVECs; 0.02 µM, p < 0.0001",−37%
same,change of THP-1 adhesion to HUVECs compared to the TNF-α treatment,"THP-1 adhesion to HUVECs; 0.2 µM, p < 0.0001",−33%
same,change of THP-1 adhesion to HUVECs compared to the TNF-α treatment,"THP-1 adhesion to HUVECs; 2 µM, p < 0.0001",−33%
same,change of THP-1 adhesion to HUVECs compared to the TNF-α treatment,"THP-1 adhesion to HUVECs; 20 μM, p < 0.0001",−45%
"COc1cc(C(=O)O)ccc1O [VA, vanillic acid]",change of VEGF concentrations vs TNF-α,VEGF; 0.05 μM,−12%
same,levels of VEGF in cell supernatant,VEGF; 0.05 µM,149 ± 3.0 ^c
same,change of VEGF concentrations vs TNF-α,VEGF; 0.5 μM,−17%
same,levels of VEGF in cell supernatant,VEGF; 0.5 µM,141 ± 8.3 ^c
same,change of VEGF concentrations vs TNF-α,VEGF; 5 μM,−13%
same,levels of VEGF in cell supernatant,VEGF; 5 µM,147 ± 4.9 ^c
same,change of VEGF concentrations vs TNF-α,VEGF; 50 μM,−21%
same,levels of VEGF in cell supernatant,VEGF; 50 µM,135 ± 5.7 ^c
same,viability at 50 µM,[1]; 50 µM,99.7 ± 0.32%
same,viability at 0.05 µM,[2],100%
same,viability at 0.5 µM,[2],99.7 ± 0.33%
same,viability at 5 µM,[2],99.7 ± 0.66%
same,viability at 50 µM,[2],99.3 ± 0.67%
same,levels of E-selectin in cell supernatant,E-selectin; 0.05 µM,312 ± 14.1 ^b
same,levels of E-selectin in cell supernatant,E-selectin; 0.5 µM,312 ± 11.2 ^b
same,levels of E-selectin in cell supernatant,E-selectin; 5 µM,305 ± 7.4 ^b
same,levels of E-selectin in cell supernatant,E-selectin; 50 µM,95 ± 13.2 ^c
same,change of E-selectin levels with respect to the positive TNF-α control,"E-selectin; 50 μM, p < 0.001",−70%
same,change of THP-1 adhesion to HUVECs compared to the TNF-α treatment,"THP-1 adhesion to HUVECs; 50 μM, p < 0.001",−21%
same,concentrations with significant reduction in the adhesion of monocytes to endothelial cells,[3],0.2 μM and 2 µM only
Oc1cc(O)c2cc(O[C@@H]3OC[C@H](O)[C@H](O)[C@H]3O)c(-c3ccc(O)c(O)c3)[o+]c2c1 [arabinoside],concentrations with significant reduction in the adhesion of monocytes to endothelial cells,[3],0.1 to 2 µM
OC[C@H]1O[C@@H](Oc2cc3c(O)cc(O)cc3[o+]c2-c2ccc(O)c(O)c2)[C@H](O)[C@@H](O)[C@@H]1O [cyanidin-3-glucoside],concentrations with significant reduction in the adhesion of monocytes to endothelial cells,[3],0.1 to 2 µM
OC[C@H]1O[C@@H](Oc2cc3c(O)cc(O)cc3[o+]c2-c2cc(O)c(O)c(O)c2)[C@H](O)[C@@H](O)[C@@H]1O [delphinidin-3-glucoside],concentrations with significant reduction in the adhesion of monocytes to endothelial cells,[3],all the concentrations tested
"COc1cc(/C=C/C(=O)O)ccc1O [ferulic, ferulic acid]",concentrations with significant reduction in the adhesion of monocytes to endothelial cells,[3],only effective at 1 μM and 2 µM
OC[C@H]1O[C@@H](Oc2cc3c(O)cc(O)cc3[o+]c2-c2ccc(O)c(O)c2)[C@H](O)[C@@H](O)[C@H]1O [galactoside],concentrations with significant reduction in the adhesion of monocytes to endothelial cells,[3],0.1 to 2 µM
"O=C(O)CNC(=O)c1ccccc1 [hippuric acids, hippuric acid]",concentrations with significant reduction in the adhesion of monocytes to endothelial cells,[3],only effective at 1 μM and 2 µM
O=C(O)c1ccc(O)c(O)c1 [protocatechuic acid],concentrations with significant reduction in the adhesion of monocytes to endothelial cells,[3],all concentration tested
